Legend:
[1] = tested on: CYP enzymes in human liver microsomes (HLM); assay: Inhibition of 20-HETE production in human liver microsomes (HLM); type: biochemical
Experimental: (§1) Experimental principle: The inhibitory activity of 20-HETE production is evaluated by testing the inhibitory effects of the compound on human liver microsomes (HLM), rat liver microsomes (RLM), mouse liver microsomes (MLM), or […] CYP4 subtype enzymes (CYP4F2). This assay employs HLM, RLM, or MLM along with recombinant CYP4F2 (rCYP4F2) and recombinant CYP4A11 (rCYP4A11), which are […] CYP4 subtype enzymes, to detect the effects of the test compound at different concentrations on the metabolic rate of enzyme-specific substrates, to determine the inhibitory effects of the test compound on CYP enzymes in HLM, RLM, or MLM.
(§2) Experimental methods: Dissolve the test compound in DMSO, and subsequently dilute it with an acetonitrile and DMSO mixture (3:1). Add 2 μl of varying concentrations of the test compound and 100 μl of potassium phosphate buffer containing either liver microsomes or recombinant enzymes to a 96-well plate. After mixing well, transfer 30 μl to another well (in duplicate), add 15 μl of 400 μM substrate solution, and mix well again. Preheat at 37° C. for 10 minutes, and then add 15 μl of 6 mM NADPH and incubate at 37° C. for 25 minutes. After 25 minutes, add 160 μl of acetonitrile solution (containing 0.1 μg/ml internal standard) to stop the reaction. Mix well, centrifuge at 3500 g for 15 minutes, and then analyze the supernatant using LC-MS/MS.
(§3) Plot the compound concentration on the x-axis and the inhibition rate on the y-axis to draw the curve. Use GraphPad Prism 5 software to fit the curve and calculate the IC50. The formula is Y=Bottom+(Top−Bottom)/(1+10^((Log IC50−X)×HillSlope)). X represents the logarithmic concentration of the inhibitor, and Y represents the relative enzyme activity at a given inhibitor concentration (relative to the condition without the inhibitor).
(§4) Calculate the inhibition percentages at concentrations of 1000 nM, 500 nM, or 100 nM as well as the half-maximal inhibitory concentration (IC50) of the test compound from the above experiment.

[2] = tested on: CYP enzymes in rat liver microsomes (RLM); assay: Inhibition of 20-HETE production in rat liver microsomes (RLM); type: biochemical
Experimental: as §1, §2, §3, §4

| SMILES | HLM (% inh @ 500 nM) [1] [%] | RLM (% inh @ 500 nM) [2] [%] | also measured |
| --- | --- | --- | --- |
| O=C1CCCCC1C(=O)N1CCC(c2ccc(-c3cn[nH]c3)c(F)c2F)CC1 (stereo not drawn) [Compound 109, 2-(4-(2,3-difluoro-4-(1H-pyrazol-4-yl)phenyl)piperidine-1-carbonyl)cyclohexane-1-one] | 74.67 | 68.22 | – |
| O=C1CCCN1CC1CCN(c2ccc(-c3cn[nH]c3)cn2)CC1 [Compound 21, 1-((1-(5-(1H-pyrazol-4-yl)pyridin-2-yl)piperidin-4-yl)methyl)pyrrolidin-2-one] | 40.01 | – | – |
| O=C1CCCN1CC1C2CN(c3ccc(-c4cn[nH]c4)cc3)CC12 (stereo not drawn) [Compound 125, 1-((3-(4-(1H-pyrazol-4-yl)phenyl)-3-azabicyclo[3.1.0]hexan-6-yl)methyl)pyrrolidin-2-one] | 94.93 | 34.82 | – |
| O=C1CCCN1C1CCN(c2ccc(-c3cn[nH]c3)cc2)CC1 [Compound 73, 1-(1-(4-(1H-pyrazol-4-yl)phenyl)piperidin-4-yl) pyrrolidin-2-one] | 65.78 | 29.56 | – |
| O=S(=O)(c1ccc(F)cc1)N1CCC(c2ccc(-c3cn[nH]c3)cc2F)CC1 [Compound 120, 4-(2-fluoro-4-(1H-pyrazol-4-yl)phenyl)-1-((4-fluorophenyl)sulfonyl)piperidine] | 93.40 | 71.20 | IC50 [1]: 16.1 nM; IC50 [2]: 107 nM |
| O=C(NCc1ccccc1)N1CCN(c2ccc(-c3cn[nH]c3)c(F)c2F)CC1 [Compound 94, N-benzyl-4-(2,3-difluoro-4-(1H-pyrazol-4-yl)phenyl)piperazine-1-carboxamide] | 92.79 | 73.06 | IC50 [2]: 148 nM |
| O=C(CCCCCO)NCC1CCN(c2ccc(-c3cn[nH]c3)cc2)CC1 [Compound 45, N-((1-(4-(1H-pyrazol-4-yl)phenyl)piperidin-4-yl)methyl)-6-hydroxyhexanamide] | 57.83 | 26.43 | – |
| O=C1CCCN1CC1CCN(c2ccc(-c3cc[nH]n3)cc2F)CC1 [Compound 76, 1-((1-(2-fluoro-4-(1H-pyrazol-3-yl)phenyl)piperidin-4-yl)methyl)pyrrolidin-2-one] | 80.70 | 40.73 | – |
| O=C1CCCN1CC1CCN(c2ccc(-c3cnoc3)c(F)c2F)CC1 [Compound 37, 1-((1-(2,3-difluoro-4-(isoxazol-4-yl)phenyl)piperidin-4-yl)methyl)pyrrolidin-2-one] | 82.89 | 59.01 | – |
| CC(=O)NCC1CCN(c2ccc(-c3cn[nH]c3)cc2)CC1 [Compound 43, N-((1-(4-(1H-pyrazol-4-yl)phenyl)piperidin-4-yl)methyl) acetamide] | 61.30 | 31.42 | – |
| O=C1CCCN1CC1CCN(c2ccc(-c3cc[nH]n3)c(F)c2F)CC1 [Compound 77, 1-((1-(2,3-difluoro-4-(1H-pyrazol-3-yl)phenyl)piperidin-4-yl)methyl)pyrrolidin-2-one] | 86.12 | 62.98 | – |
| O=C(N1CCCC1)N1CC2CCC(C1)N2c1ccc(-c2cn[nH]c2)c(F)c1F [Compound 128, (8-(2,3-difluoro-4-(1H-pyrazol-4-yl)phenyl)-3,8-diazabicyclo[3.2.1]octan-3-yl)(pyrrolidin-1-yl) methanone] | 89.99 | 62.11 | – |
| O=C(N1CCCC1)N1CCN(c2ccc(-c3cn[nH]c3)cc2F)CC1 [Compound 129, (4-(2-fluoro-4-(1H-pyrazol-4-yl)phenyl)piperazin-1-yl)(pyrrolidin-1-yl) methanone] | 89.94 | 74.89 | – |
| CCCCCC1CCC(C(=O)N2CCC(c3ccc(-c4cn[nH]c4)c(F)c3F)CC2)CC1 (stereo not drawn) [Compound 112, (4-(2,3-difluoro-4-(1H-pyrazol-4-yl)phenyl)piperidin-1-yl)((1s,4r)-4-pentylcyclohexyl) methanone] | 70.73 | 71.58 | – |
| COc1cc(-c2cn[nH]c2)ccc1N1CCC(CN2CCCC2=O)CC1 [Compound 14, 1-((1-(2-methoxy-4-(1H-pyrazol-4-yl)phenyl)piperidin-4-yl)methyl)pyrrolidin-2-one] | 41.24 | – | – |
| O=C1c2ccccc2CCN1CC1CCN(c2ccc(-c3cn[nH]c3)cc2)CC1 [Compound 42, 2-((1-(4-(1H-pyrazol-4-yl)phenyl)piperidin-4-yl)methyl)-3,4-dihydroisoquinolin-1(2H)-one] | – | 25.96 | IC50 [1]: 32.8 nM; IC50 [2]: 605 nM |

| SMILES | HLM (% inh @ 500 nM) [1] [%] | RLM (% inh @ 500 nM) [2] [%] | also measured |
| --- | --- | --- | --- |
| O=C(NC1CCCC1)N1CCN(c2ccc(-c3cn[nH]c3)c(F)c2F)CC1 [Compound 89, N-cyclopentyl-4-(2,3-difluoro-4-(1H-pyrazol-4-yl)phenyl)piperazine-1-carboxamide] | 94.11 | 55.76 | – |
| O=S(=O)(c1ccc(F)cc1)N1CCN(c2ccc(-c3cn[nH]c3)cc2F)CC1 [Compound 134, 1-(2-fluoro-4-(1H-pyrazol-4-yl)phenyl)-4-((4-fluorophenyl)sulfonyl)piperazine] | – | – | IC50 [1]: 21.9 nM |
| O=C(C1CCCCC1O)N1CCC(c2ccc(-c3cn[nH]c3)cc2F)CC1 (single isomer, unassigned) [Compound 149a, (4-(2-fluoro-4-(1H-pyrazol-4-yl)phenyl)piperidin-1-yl)(2-hydroxycyclohexyl) methanone] | – | – | HLM (% inh @ 100 nM) [1]: 84.74% |
| O=C1CCCN1CC1CCN(c2ncc(-c3cn[nH]c3)cn2)CC1 [Compound 23, 1-((1-(5-(1H-pyrazol-4-yl)pyrimidin-2-yl)piperidin-4-yl)methyl)pyrrolidine-2-one] | −24.84 | – | – |
| O=C(C1CCN(c2ccc(-c3cn[nH]c3)cc2)CC1)N1CCNCC1 [Compound 51, (1-(4-(1H-pyrazol-4-yl)phenyl)piperidin-4-yl)(piperazin-1-yl) methanone] | 30.17 | – | – |
| O=C(C1CCCC(O)C1)N1CCC(c2ccc(-c3cn[nH]c3)cc2F)CC1 (stereo not drawn) [Compound 148, (4-(2-fluoro-4-(1H-pyrazol-4-yl)phenyl)piperidin-1-yl)(3-hydroxycyclohexyl) methanone] | – | – | HLM (% inh @ 100 nM) [1]: 85.60% |
| NC(=O)c1cc(-c2cn[nH]c2)ccc1N1CCC(CN2CCCC2=O)CC1 [Compound 16, 2-(4-((2-oxopyrrolidin-1-yl)methyl)piperidin-1-yl)-5-(1H-pyrazol-4-yl)benzamide] | 41.22 | – | – |
| CC(C)(O)CC(=O)N1CCC(c2ccc(-c3cn[nH]c3)cc2F)CC1 [Compound 151, 1-(4-(2-fluoro-4-(1H-pyrazol-4-yl)phenyl)piperidin-1-yl)-3-hydroxy-3-methylbutan-1-one] | – | – | HLM (% inh @ 100 nM) [1]: 82.28% |
| O=C1C2CCCC2CN1CC1CCN(c2ccc(-c3cn[nH]c3)cc2F)CC1 (stereo not drawn) [Compound 160, 2-((1-(2-fluoro-4-(1H-pyrazol-4-yl)phenyl)piperidin-4-yl)methyl) hexahydrocyclopenta[c]pyrrol-1(2H)-one] | – | – | IC50 [1]: 23.2 nM |
| O=C1CCCN1Cc1ccc2c(c1)CN(c1ccc(-c3cn[nH]c3)cc1)C2 [Compound 126, 1-(2-(4-(1H-pyrazol-4-yl)phenyl)isoindolin-5-ylmethyl)pyrrolidin-2-one] | 64.15 | – | – |
| O=C(C1CCN(c2ccc(-c3cn[nH]c3)cc2)CC1)N1Cc2cccnc2C1 [Compound 157, (1-(4-(1H-pyrazol-4-yl)phenyl)piperidin-4-yl)(5,7-dihydro-6H-pyrrolo[3,4-b]pyridin-6-yl) methanone] | – | – | IC50 [1]: 17.6 nM |
| O=C(N1CCN(c2ccc(-c3cn[nH]c3)cc2F)CC1)N1CC2CCCC2C1 (stereo not drawn) [Compound 133, (4-(2-fluoro-4-(1H-pyrazol-4-yl)phenyl)piperazin-1-yl)(hexahydrocyclopenta[c]pyrrol-2 (1H)-yl) methanone] | – | – | HLM (% inh @ 100 nM) [1]: 87.90% |
| O=C(N1CCC(c2ccc(-c3cn[nH]c3)cc2)CC1)C1(O)CCCCC1 [Compound 139, (4-(4-(1H-pyrazol-4-yl)phenyl)piperidin-1-yl)(1-hydroxycyclohexyl) methanone] | – | – | HLM (% inh @ 100 nM) [1]: 88.13% |
| CN(C)c1cc(-c2cn[nH]c2)ccc1N1CCC(CN2CCCC2=O)CC1 [Compound 20, 1-((1-(2-(dimethylamino)-4-(1H-pyrazol-4-yl)phenyl)piperidin-4-yl)methyl)pyrrolidin-2-one] | 36.16 | – | – |
| N#Cc1ccc2c(c1)CN(C(=O)C1CCN(c3ccc(-c4cn[nH]c4)cc3)CC1)C2 [Compound 158, 2-(1-(4-(1H-pyrazol-4-yl)phenyl)piperidine-4-carbonyl) isoindoline-5-carbonitrile] | – | – | IC50 [1]: 11.7 nM |
| O=C(C1CCN(c2ccc(-c3cn[nH]c3)cc2F)CC1)N1Cc2ccccc2C1 [Compound 156, (1-(2-fluoro-4-(1H-pyrazol-4-yl)phenyl)piperidin-4-yl)(isoindolin-2-yl) methanone] | – | – | IC50 [1]: 26.2 nM |

From patent publication US20250034116A1, “1,4-DIHETEROCYCLIC SUBSTITUTED AROMATIC RING OR AROMATIC HETEROCYCLIC COMPOUND AND USE THEREOF” (BeBetter Med Inc., priority 2022, published 2025)
